# Assay results reported in US20100261783A1, “CRUCIFEROUS 3H-1,2-DITHIOLE-3-THIONE (D3T) AND METHODS OF PROTECTING AGAINST CELL INJURY” (priority 2009, published 2010).
# Assays:
# [1] = test system: human neuroblastoma SH-SY5Y cells; assay: Induction of cellular antioxidants and phase 2 enzymes (GSH, NQO1, GCL) in SH-SY5Y cells; type: cell-based
# human primary astrocytes = assay: Induction of cellular antioxidants and phase 2 enzymes in human primary astrocytes; type: cell-based
# [2] = test system: primary human cardiomyocytes; assay: Induction of antioxidants and phase 2 enzymes in human cardiomyocytes; type: cell-based
# [3] = test system: human neuroblastoma SH-SY5Y cells; conditions: D3T-pretreatment of SH-SY5Y cells; cited from earlier work
# human cardiomyocytes [4] = conditions: cited from earlier work
# [5] = test system: primary human cardiomyocytes; conditions: cited from earlier work
# SH-SY5Y cells [6] = conditions: D3T-pretreatment; dopamine, 6-hydroxydopamine, 4-hydroxy-2-nonenal, H2O2; cited from earlier work
# human cardiomyocytes [7] = assay: Protection of human cardiomyocytes from oxidative/electrophilic injury and doxorubicin toxicity; type: cell-based
# SH-SY5Y cells [8] = assay: Protection of SH-SY5Y cells against neurotoxicant-elicited cytotoxicity; type: cell-based; conditions: human neuroblastoma SH-SY5Y cells
compound,measurement,setting,value
"S=c1ccss1 [D3T, 3H-1,2-dithiole-3-thione]",induction of glutathione (GSH),[1]; SH-SY5Y cells,marked concentration- and time-dependent induction
same,protein and mRNA expression of gamma-glutamylcysteine ligase (GCL),[1]; SH-SY5Y cells,increased
same,induction of cellular antioxidants and phase 2 enzymes,[1]; human neuronal cells (neuroblastoma SH-SY5Y cells),capable of inducing
same,induction of cellular antioxidants including glutathione (GSH) and phase 2 enzymes,human primary astrocytes,able to induce
same,induction of antioxidants in mitochondria,[2]; mitochondria of the human cardiomyocytes,potently induced
same,induction of a series of antioxidants,"[2]; primary human cardiomyocytes, total cellular",potently induced
same,"induction of GSH, NQO1, and mitochondrial GSH",[3],induction
same,resistance to oxidative/electrophilic stress and doxorubicin toxicity,human cardiomyocytes [4],increased resistance
same,upregulation of antioxidants and phase 2 enzymes,[5],potently upregulated
same,protection against the cytotoxicity elicited by neurotoxicants,SH-SY5Y cells [6],significant protection
same,protection of cardiomyocytes from injury elicited by doxorubicin,human cardiomyocytes [7]; doxorubicin,potently protected
same,protection of cardiomyocytes from injury caused by free radicals and electrophiles,human cardiomyocytes [7]; wide range of free radicals and electrophiles,nearly complete protection
same,protection against acrolein-induced cytotoxicity,SH-SY5Y cells [8],dramatic protection
